Source: patent US6395906B1, “Intermediates to pesticidal 1-arylpyrazoles” (Rhone-Poulenc Inc., priority 1995, dated 2002)

Key:
Assay type in all cases: in vivo
[1] = tested on: Mexican bean beetle (Epilachna varivestis); experiment: Mexican bean beetle (MBB) treated bean leaf test; conditions: bean leaves, 100 or 500 ppm; second instar larvae, five days
Description: (§1) For the tick, aphids, souther armyworm, tobacco budworm, house fly, Mexican bean beetle, American cockroach, cat flea, souther corn rootworm, western corn rootworm, black cutworm, and southern root-knot nematode, a solution or suspension was prepared by adding the test compound to a solution of dimethylformamide, acetone, emulsifiers which are alkylaryl polyether alcohols organic sulfonates, and water. The result was a 100 or 500 ppm concentration of the test compound.
Southern armyworm (SAW), Mexican bean beetle (MBB): Bean leaves were wet to runoff with the 100 or 500 ppm test compound formulation. As an untreated control, a water-acetone-DMF-emulsifier solution containing no test compound was also applied wet to runoff to bean leaves. Five or six randomly selected second instar southern armyworn larvae or Mexican bean bettle larvae were introduced into each plastic container with the dry treated leaves. The container was closed and held for five days. Larvae which were unable to move the length of the body, even upon stimulation by prodding, were considered dead.

[2] = tested on: tobacco budworm (Heliothis virescens); experiment: Tobacco budworm (TBW) treated cotton leaf test; conditions: cotton leaves, 100 ppm; second instar larvae, five days
Procedure, shortened: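 Leaf-dip test: cotton leaves wetted to runoff with 100 ppm compound in DMF/acetone/emulsifier/water, dried, then offered to ten second-instar Heliothis virescens larvae in closed cups with moist wicks. Mortality scored after five days; larvae unable to move one body length on prodding counted dead; solvent-emulsifier control run alongside.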

[3] = tested on: buckthorn aphid (Aphis nasturtii); experiment: Buckthorn aphid (BA) foliar spray test; conditions: nasturtium plants wet to runoff, 100 or 500 ppm; dead aphids counted after one day
Description: as §1
Buckthorn aphid (BA) or cotton aphid (CA): Adult and nymphal stages of buckthorn or cotton aphid were reared on potted dwarf nasturtium or cotton plants, respectively. Plants infested with 100-150 aphids were wet to runoff with the 100 or 500 ppm test compound formulation. As an untreated control, a water-acetone-DMF-emulsifier solution containing no test compound was also applied to runoff to infested plants. The treated plants were stored for one day for buckthorn aphid and three days for cotton aphid, after which the dead aphids were counted.

[4] = tested on: American cockroach (Periplaneta americana); experiment: American cockroach (ACR) treated food pellet test; conditions: food pellets with 500 ppm formulation; nymphs, contact and feeding mortality 1 and 5 days after infestation
Procedure, shortened: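 Pet-food pellets treated with 500 ppm compound in DMF/acetone/emulsifier/water; solvent-only blank as control. Nymphs added after 48 h; contact and feeding mortality scored 1 and 5 days post-infestation.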

[5] = tested on: cat flea (Ctenocephalides felis); experiment: Cat flea (CF) treated filter paper contact test; conditions: 500 ppm, adult fleas, contact mortality 1 day after infestation
Description: as §1
(§2) Cat flea (CF), dog tick (DT): Filter papers were treated with an aliquot of the 500 ppm test formulation. As an untreated control, an aliquot of a water-acetone-DMF-emulsifier solution containing no test compound was applied in a similar manner. When dry, 2 treated filters were placed in a vial for the flea and another 2 filters in a vial for the tick. Five adult fleas were added to one vial and 5 adult ticks to the second vial. Contact mortality was assessed 1 day after infestation for the flea and 14 days after infestation for the tick.

[6] = tested on: dog tick (Rhipicephalus sanguineus); experiment: Dog tick (DT) treated filter paper contact test; conditions: 500 ppm, adult ticks, contact mortality 14 days after infestation
Description: as §1, §2

[7] = tested on: western corn rootworm (Diabrotica virgifera virgifera); experiment: Western corn rootworm (WCRW) soil test; conditions: soil concentration 0.15 or 0.5 ppm; neonate larvae, mortality six days after infestation
Procedure, shortened: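 Test formulation applied to dry sandy loam soil in a jar for 0.15 or 0.5 ppm soil concentration; solvent-only untreated control. After 24 h covered incubation, four germinated corn seedlings and ten neonate larvae added. Mortality assessed 6 days after infestation by Berlese funnel extraction.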

SMILES	MBB [1]	TBW [2]	BA [3]	ACR [4]	CF [5]	DT [6]	WCRW [7]
CC(=O)c1c(S(=O)(=O)C(F)(F)F)c(C#N)nn1-c1c(Cl)cc(C(F)(F)F)cc1Cl [Compound 1, 5-Acetyl-3-cyano-1-(2,6-dichloro-4-trifluoromethylphenyl)-4-trifluoromethylsulfonylpyrazole]	+ (active against 1 or more insects described above up to 100% mortality. This activity is indicated by a “+”)	+ (active against 1 or more insects described above up to 100% mortality. This activity is indicated by a “+”)	+ (active against 1 or more insects described above up to 100% mortality. This activity is indicated by a “+”)				
CCOC(OCC)c1c(SC(F)(F)F)c(C#N)nn1-c1c(Cl)cc(C(F)(F)F)cc1Cl [Compound 18, 3-Cyano-1-(2,6-dichloro-4-trifluoromethylphenyl)-5-diethoxymethyl-4-trifluoromethylthiopyrazole]				+ (active against 1 or more insects described above up to 100% mortality. This activity is indicated by a “+”)	+ (active against 1 or more insects described above up to 100% mortality. This activity is indicated by a “+”)	+ (active against 1 or more insects described above up to 100% mortality. This activity is indicated by a “+”)	+ (active against 1 or more insects described above up to 100% mortality. This activity is indicated by a “+”)
